Values joined by “and” are separate entries in the source; they are usually repeats but may differ in a detail not shown here. Equal values may be shown once. Toxic doses and inconclusive results are not listed. Cut-off read from the data, not from the text of the source: active = T/C of 150% or more; inactive = T/C below 125%.
System: L1210 leukemia ip in BDF1 mice, survival T/C
Assay: NCI In Vivo Anticancer Drug Screen. Data for tumor model L1210 Leukemia (intraperitoneal) in B6D2F1 (BDF1) mice
Settings: endpoint: mean survival time, higher = longer survival
In short: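 Value reflects the ratio of survival in compound-treated mice to survival in vehicle-treated controls, with both groups carrying the same transplanted tumor.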

[1] = dose: 100.0 mg/kg/injection, schedule: Q04DX003 (ip), vehicle: saline with Tween-80
[2] = dose: 100.0 mg/kg/injection, schedule: Q01DX009 (ip), vehicle: saline with Tween-80
[3] = dose: 400.0 mg/kg/injection, schedule: Q01DX009 (ip), vehicle: saline with Tween-80
[4] = dose: 50.0 mg/kg/injection, schedule: Q01DX009 (ip), vehicle: saline with Tween-80
[5] = dose: 100.0 mg/kg/injection, schedule: Q04DX002 (ip), vehicle: Klucel (hydroxypropylcellulose) (HPC)
[6] = dose: 200.0 mg/kg/injection, schedule: Q01DX009 (ip), vehicle: saline with Tween-80
[7] = dose: 100.0 mg/kg/injection, schedule: Q01DX009 (ip), vehicle: Klucel (hydroxypropylcellulose) (HPC)
[8] = dose: 200.0 mg/kg/injection, schedule: Q01DX009 (ip), vehicle: Klucel (hydroxypropylcellulose) (HPC)
[9] = dose: 100.0 mg/kg/injection, schedule: Q01DX009 (ip), vehicle: saline
[10] = dose: 100.0 mg/kg/injection, schedule: Q04DX003 (ip), vehicle: saline
[11] = dose: 200.0 mg/kg/injection, schedule: Q01DX009 (ip), vehicle: saline
[12] = dose: 200.0 mg/kg/injection, schedule: Q04DX003 (ip), vehicle: saline
[13] = dose: 100.0 mg/kg/injection, schedule: Q04DX003 (ip), vehicle: Klucel (hydroxypropylcellulose) (HPC)
[14] = dose: 200.0 mg/kg/injection, schedule: Q04DX003 (ip), vehicle: Klucel (hydroxypropylcellulose) (HPC)
[15] = dose: 400.0 mg/kg/injection, schedule: Q04DX003 (ip), vehicle: Klucel (hydroxypropylcellulose) (HPC)

Measured: T/C

CCOCCOCCOC(C)Oc1ccc(Cl)cc1C (centres undefined)
inactive: dose: 100.0 mg/kg/injection, schedule: Q04DX002 (ip), vehicle: saline with Tween-80 123 % of control | dose: 200.0 mg/kg/injection, schedule: Q04DX002 (ip), vehicle: saline with Tween-80 100 % of control | dose: 400.0 mg/kg/injection, schedule: Q04DX002 (ip), vehicle: saline with Tween-80 103 % of control

O=[N+]([O-])c1ccc(/C=N/N(Cc2ccccc2)c2ccccc2)s1
inactive: [1] 87 % of control | dose: 400.0 mg/kg/injection, schedule: Q04DX003 (ip), vehicle: saline with Tween-80 89 % of control

CCOC(=O)C(Br)CCCC(Br)C(=O)OCC (centres undefined)
inactive: [2] 90 % of control | [3] 89 % of control

CCOC(=O)c1c(NC(=O)CCl)ssc1=S
inactive: [4] 103 % of control | [1] 92 % of control | dose: 200.0 mg/kg/injection, schedule: Q04DX003 (ip), vehicle: saline with Tween-80 91 % of control

Cc1ccc(Nc2nc(N)nc(N)c2Cl)cc1
inactive: [4] 94 % of control | [2] 91 % of control

N#C/C(=C/c1ccccc1Cl)C(N)=O
inactive: [2] 100 % of control | [5] 100 % of control | [6] 94 % of control | dose: 200.0 mg/kg/injection, schedule: Q04DX002 (ip), vehicle: Klucel (hydroxypropylcellulose) (HPC) 93 % of control | [3] 94 % of control | dose: 400.0 mg/kg/injection, schedule: Q04DX002 (ip), vehicle: Klucel (hydroxypropylcellulose) (HPC) 107 % of control

O=Nc1ccc(O)c2ccccc12
inactive: dose: 50.0 mg/kg/injection, schedule: Q01DX009 (ip), vehicle: Klucel (hydroxypropylcellulose) (HPC) 100 % of control | [7] 100 % of control | [8] 95 % of control

CCOC(=O)c1ccc(NC(=O)Nc2cc(Cl)ccc2OC)cc1
inactive: [9] 106 % of control | [10] 109 % of control | [11] 92 % of control | [12] 97 % of control | dose: 400.0 mg/kg/injection, schedule: Q01DX009 (ip), vehicle: saline 92 % of control | dose: 400.0 mg/kg/injection, schedule: Q04DX003 (ip), vehicle: saline 92 % of control

COc1cc2c(cc1OC)C(Cc1ccc(O)cc1)N(C)CC2 (centres undefined)
inactive: dose: 100.0 mg/kg/injection, schedule: Q01DX001 (ip), vehicle: saline 96 % of control | dose: 200.0 mg/kg/injection, schedule: Q01DX001 (ip), vehicle: saline 91 % of control

C=CCc1c[nH]c(=S)[nH]c1=O.[Hg]
inactive: dose: 3.12 mg/kg/injection, schedule: Q01DX001 (ip), vehicle: Klucel (hydroxypropylcellulose) (HPC) 98 % of control | dose: 6.0 mg/kg/injection, schedule: Q01DX009 (ip), vehicle: Klucel (hydroxypropylcellulose) (HPC) 98 % of control | dose: 6.0 mg/kg/injection, schedule: Q04DX003 (ip), vehicle: Klucel (hydroxypropylcellulose) (HPC) 97 % of control | dose: 6.25 mg/kg/injection, schedule: Q01DX001 (ip), vehicle: Klucel (hydroxypropylcellulose) (HPC) 98 % of control | dose: 12.0 mg/kg/injection, schedule: Q01DX009 (ip), vehicle: Klucel (hydroxypropylcellulose) (HPC) 94 % of control | dose: 12.0 mg/kg/injection, schedule: Q04DX003 (ip), vehicle: Klucel (hydroxypropylcellulose) (HPC) 100 % of control | dose: 12.5 mg/kg/injection, schedule: Q01DX001 (ip), vehicle: Klucel (hydroxypropylcellulose) (HPC) 93 % of control and 96 % of control | dose: 50.0 mg/kg/injection, schedule: Q01DX001 (ip), vehicle: Klucel (hydroxypropylcellulose) (HPC) 93 % of control

COc1ccc(NC(=O)Nc2cc([N+](=O)[O-])ccc2F)cc1
inactive: [13] 89 % of control | [14] 89 % of control | [15] 88 % of control

CCCCCC(=O)N(CCCC)CCCC
inactive: dose: 100.0 mg/kg/injection, schedule: Q01DX001 (ip), vehicle: carboxymethylcellulose (CMC) 103 % of control | dose: 100.0 mg/kg/injection, schedule: Q01DX009 (ip), vehicle: carboxymethylcellulose (CMC) 97 % of control and 98 % of control | dose: 100.0 mg/kg/injection, schedule: Q04DX002 (ip), vehicle: carboxymethylcellulose (CMC) 102 % of control and 103 % of control | dose: 100.0 mg/kg/injection, schedule: Q04DX003 (ip), vehicle: carboxymethylcellulose (CMC) 98 % of control | dose: 200.0 mg/kg/injection, schedule: Q01DX001 (ip), vehicle: carboxymethylcellulose (CMC) 110 % of control | dose: 200.0 mg/kg/injection, schedule: Q01DX009 (ip), vehicle: carboxymethylcellulose (CMC) 94 % of control and 103 % of control | dose: 200.0 mg/kg/injection, schedule: Q04DX002 (ip), vehicle: carboxymethylcellulose (CMC) 97 % of control and 105 % of control | dose: 200.0 mg/kg/injection, schedule: Q04DX003 (ip), vehicle: carboxymethylcellulose (CMC) 97 % of control | dose: 400.0 mg/kg/injection, schedule: Q01DX001 (ip), vehicle: carboxymethylcellulose (CMC) 106 % of control | dose: 400.0 mg/kg/injection, schedule: Q01DX009 (ip), vehicle: carboxymethylcellulose (CMC) 98 % of control | dose: 400.0 mg/kg/injection, schedule: Q04DX002 (ip), vehicle: carboxymethylcellulose (CMC) 97 % of control and 109 % of control | dose: 400.0 mg/kg/injection, schedule: Q04DX003 (ip), vehicle: carboxymethylcellulose (CMC) 97 % of control

CC1=CCS(=O)(=O)C1
inactive: [10] 103 % of control | [12] 101 % of control

CC1CCCCN1Cc1ccccc1COC(=O)c1ccc(Cl)cc1 (centres undefined)
inactive: dose: 100.0 mg/kg/injection, schedule: Q01DX001 (ip), vehicle: Klucel (hydroxypropylcellulose) (HPC) 98 % of control | dose: 200.0 mg/kg/injection, schedule: Q01DX001 (ip), vehicle: Klucel (hydroxypropylcellulose) (HPC) 107 % of control

C/C=C1\CCC2C(=C1C)CC1C2CC=C2CC(OC(C)=O)CCC21C (centres undefined)
inactive: [7] 97 % of control | [13] 94 % of control | [8] 87 % of control | [14] 91 % of control | dose: 400.0 mg/kg/injection, schedule: Q01DX009 (ip), vehicle: Klucel (hydroxypropylcellulose) (HPC) 90 % of control | [15] 93 % of control

C[n+]1ccc(/C=C/c2ccc(O)c3ccccc23)c2ccccc21
inactive: dose: 75.0 mg/kg/injection, schedule: Q01DX001 (ip), vehicle: carboxymethylcellulose (CMC) 100 % of control | dose: 150.0 mg/kg/injection, schedule: Q01DX001 (ip), vehicle: carboxymethylcellulose (CMC) 100 % of control | dose: 300.0 mg/kg/injection, schedule: Q01DX001 (ip), vehicle: carboxymethylcellulose (CMC) 115 % of control

COC(=O)C1C2C(C)CC3(CC12C)OCCO3 (centres undefined)
inactive: dose: 100.0 mg/kg/injection, schedule: Q01DX009 (ip), vehicle: saline sonified 92 % of control | [13] 102 % of control | dose: 200.0 mg/kg/injection, schedule: Q01DX009 (ip), vehicle: saline sonified 97 % of control | [14] 93 % of control | dose: 400.0 mg/kg/injection, schedule: Q01DX009 (ip), vehicle: saline sonified 92 % of control | [15] 86 % of control

N#CCOc1ccc(Cl)cc1
inactive: dose: 6.25 mg/kg/injection, schedule: Q01DX009 (ip), vehicle: Klucel (hydroxypropylcellulose) (HPC) 96 % of control | dose: 12.5 mg/kg/injection, schedule: Q01DX009 (ip), vehicle: Klucel (hydroxypropylcellulose) (HPC) 97 % of control | dose: 25.0 mg/kg/injection, schedule: Q01DX009 (ip), vehicle: Klucel (hydroxypropylcellulose) (HPC) 95 % of control and 108 % of control | [5] 87 % of control

CC1(C)c2ccccc2C(C)(O)c2ccccc21
inactive: [2] 96 % of control | dose: 100.0 mg/kg/injection, schedule: Q04DX003 (ip), vehicle: other 104 % of control | [6] 93 % of control | dose: 200.0 mg/kg/injection, schedule: Q04DX003 (ip), vehicle: other 94 % of control | [3] 93 % of control | dose: 400.0 mg/kg/injection, schedule: Q04DX003 (ip), vehicle: other 107 % of control

O=C(N/N=C\c1ccc2c(c1)OCO2)N/N=C/c1ccc2c(c1)OCO2
inactive: [13] 97 % of control | [14] 100 % of control | [15] 97 % of control

CCCCCC(C1=NC(C)(C)CC(C)O1)c1ccccc1 (centres undefined)
inactive: [9] 103 % of control | dose: 100.0 mg/kg/injection, schedule: Q04DX003 (ip), vehicle: saline sonified 103 % of control | [11] 113 % of control | dose: 200.0 mg/kg/injection, schedule: Q04DX003 (ip), vehicle: saline sonified 117 % of control | dose: 400.0 mg/kg/injection, schedule: Q04DX003 (ip), vehicle: saline sonified 105 % of control

Reference: PubChem BioAssay AID248 (DTP/NCI, 2004)
